pEC50: −log10 of the molar value.
These molecules were tested on Bloodstream form of Trypanosoma brucei, strain Lister 427 (assay: Trypanosoma brucei growth inhibition assay (CellTiter-Glo, 24 h)). Details: Trypanosoma brucei; T. Brucei Growth Inibition Assay, class symbols; read-out: T. Brucei GI EC50.
Type: cell-based
Outline: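 Bloodstream-form T. brucei Lister 427, 1500 parasites per well in supplemented IMDM with 10% FBS, were exposed to compound (DMSO ≤0.25% final) for 24 h at 37 °C. Viability was measured by CellTiter-Glo luminescence.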
For `COc1ccc2nc(C(F)(F)F)n(CC(=O)N3CC[C@H](OC)C[C@H]3c3ncc(-c4cc5ccccc5nc4OC)[nH]3)c2c1` [1-((2S,4S)-4-methoxy-2-(5-(2-methoxyquinolin-3-yl)-1H-imidazol-2-yl)piperidin-1-yl)-2-(6-methoxy-2-(trifluoromethyl)-1H-benzo[d]imidazol-1-yl)ethan-1-one], the pEC50 was > 7.00. Work on `CCCCCCN1CCN(C(=O)Cc2cn(C)c3ccccc23)C(c2ncc(-c3ccc4ccccc4c3)[nH]2)C1` (stereo not drawn) yielded a pEC50 of 5.30 to 6.00. For `COc1ccc2nc(C(F)(F)F)n(CC(=O)N3CC[C@H](NCc4cnccn4)C[C@H]3c3ncc(-c4cc5ccccc5nc4OC)[nH]3)c2c1` [2-(6-methoxy-2-(trifluoromethyl)-1H-benzo[d]imidazol-1-yl)-1-((2S,4S)-2-(5-(2-methoxyquinolin-3-yl)-1H-imidazol-2-yl)-4-((pyrazin-2-ylmethyl)amino)piperidin-1-yl)ethan-1-one], the pEC50 was > 7.00. `COc1nc2ccccc2cc1-c1cnc(C2CN(CC3CC3)CCN2C(=O)Cc2c(C)[nH]c3ccc(F)cc23)[nH]1` (stereo not drawn) showed a pEC50 of 6.30 to 7.00. Work on `CN1CCN(C(=O)Cc2ccccc2F)C(c2ncc(-c3ccc4ccccc4c3)[nH]2)C1` (stereo not drawn) yielded a pEC50 of 5.30 to 6.00. With `CCCCCCN1CCN(C(=O)Cc2c[nH]c3cccnc23)C(c2ncc(-c3ccc4ccccc4c3)[nH]2)C1` (stereo not drawn) the pEC50 was 5.30 to 6.00. For `COc1ccc2nc(C(F)(F)F)n(CC(=O)N3CCN(Cc4noc(C)n4)CCC3c3ncc(-c4cc5ccccc5nc4OC)[nH]3)c2c1` (stereo not drawn), the pEC50 was 6.30 to 7.00. In the case of `COc1ccc2nc(C(F)(F)F)n(CC(=O)N3CC[C@H](N4CCCC4)C[C@H]3c3ncc(-c4cc5ccccc5nc4OC)[nH]3)c2c1` [2-(6-methoxy-2-(trifluoromethyl)-1H-benzo[d]imidazol-1-yl)-1-((2S,4S)-2-(5-(2-methoxyquinolin-3-yl)-1H-imidazol-2-yl)-4-(pyrrolidin-1-yl)piperidin-1-yl)ethan-1-one], the pEC50 was > 7.00. In the case of `COc1ccc2nc(C)n(CC(=O)N3CCN(Cc4cnccn4)CCC3c3ncc(-c4cc5ccccc5nc4OC)[nH]3)c2c1` (stereo not drawn), the pEC50 was 6.30 to 7.00. With `COc1nc2ccccc2cc1-c1cnc(C2CN(CC3CCOC3)CCN2C(=O)Cn2c(C)nc3cc(F)ccc32)[nH]1` (stereo not drawn) the pEC50 was 6.30 to 7.00. For `COc1ccc2c(c1)[C@H](CC(=O)N1CCN(C)CC1c1ncc(-c3ccc4ccccc4c3)[nH]1)C(=O)N2` (stereo partly drawn), the pEC50 was 5.30 to 6.00. In the case of `COc1ccc2[nH]c(C)c(CC(=O)N3CCN(CCCC(=O)O)CC3c3ncc(-c4ccc5ccccc5c4)[nH]3)c2c1` (stereo not drawn), the pEC50 was 5.30 to 6.00. For `COc1ccc2cc(C)n(CC(=O)N3CCOCC3c3ncc(-c4cc5ccccc5nc4OC)[nH]3)c2c1` (stereo not drawn), the pEC50 was 6.00 to 6.29. `COc1nc2ccccc2cc1-c1cnc(C2COCCN2C(=O)Cn2nc(C)c3ccccc3c2=O)[nH]1` (stereo not drawn) gave a pEC50 of 5.30 to 6.00. With `COc1ccc2nc(C(F)(F)F)n(CC(=O)N3CCN(Cc4cn(C)nn4)CCC3c3ncc(-c4cc5ccccc5nc4OC)[nH]3)c2c1` (stereo not drawn) the pEC50 was 6.30 to 7.00. For `CN1CCN(C(=O)Cc2cnc3ccccc3c2)C(c2ncc(-c3ccc4ccccc4c3)[nH]2)C1` (stereo not drawn), the pEC50 was 5.30 to 6.00. For `COc1ccc2nc(C(F)(F)F)n(CC(=O)N3CC[C@H](NCCn4cccn4)C[C@H]3c3ncc(-c4cc5ccccc5nc4OC)[nH]3)c2c1` [1-((2S,4S)-4-((2-(1H-pyrazol-1-yl)ethyl)amino)-2-(5-(2-methoxyquinolin-3-yl)-1H-imidazol-2-yl)piperidin-1-yl)-2-(6-methoxy-2-(trifluoromethyl)-1H-benzo[d]imidazol-1-yl)ethan-1-one], the pEC50 was > 7.00. Work on `COc1nc2ccccc2cc1-c1cnc(C2CN(CC3CCOC3)CCN2C(=O)Cn2c(=O)ncc3ccccc32)[nH]1` (stereo not drawn) yielded a pEC50 of 5.30 to 6.00. For `COc1ccc2nc(C)n(CC(=O)N3CCN(CCn4cccn4)C[C@H]3c3ncc(-c4cc5ccccc5nc4OC)[nH]3)c2c1`, the pEC50 was 6.30 to 7.00. With `CCCCCCN1CCN(C(=O)Cc2c[nH]c3ccc(O)cc23)C(c2ncc(-c3ccc4ccccc4c3)[nH]2)C1` (stereo not drawn) the pEC50 was 5.30 to 6.00. With `COc1nc2ccccc2cc1-c1cnc(C2COCCN2C(=O)Cc2c(C)[nH]c3ccc(F)cc23)[nH]1` (stereo not drawn) the pEC50 was 6.00 to 6.29. In the case of `COc1ccc2nc(C(F)(F)F)n(CC(=O)N3CCC(O)C[C@H]3c3ncc(-c4cc5ccccc5nc4OC)[nH]3)c2c1` (stereo partly drawn) [1-((2S)-4-hydroxy-2-(5-(2-methoxyquinolin-3-yl)-1H-imidazol-2-yl)piperidin-1-yl)-2-(6-methoxy-2-(trifluoromethyl)-1H-benzo[d]imidazol-1-yl)ethan-1-one], the pEC50 was > 7.00. For `COc1ccc2nc(C(F)(F)F)n(CC(=O)N3CC[C@H](NC4CCC4)C[C@H]3c3ncc(-c4cc5ccccc5nc4OC)[nH]3)c2c1` [1-((2S,4S)-4-(cyclobutylamino)-2-(5-(2-methoxyquinolin-3-yl)-1H-imidazol-2-yl)piperidin-1-yl)-2-(6-methoxy-2-(trifluoromethyl)-1H-benzo[d]imidazol-1-yl)ethan-1-one], the pEC50 was > 7.00. `COc1ccc2nc(C(F)(F)F)n(CC(=O)N3CCS(=O)(=O)C[C@H]3c3ncc(-c4cc5ccccc5nc4OC)[nH]3)c2c1` [(R)-2-(6-methoxy-2-(trifluoromethyl)-1H-benzo[d]imidazol-1-yl)-1-(3-(5-(2-methoxyquinolin-3-yl)-1H-imidazol-2-yl)-1,1-dioxidothiomorpholino)ethan-1-one] gave a pEC50 of 6.30 to 7.00. `COc1nc2ccccc2cc1-c1cnc([C@@H]2CN(CC3CCOC3)CCN2C(=O)C(C)(C)n2c(C(F)(F)F)nc3ccccc32)[nH]1` (stereo partly drawn) showed a pEC50 of 5.30 to 6.00. With `O=C(Cc1c[nH]c2ccc(O)cc12)N1CCN(CC2CC2)CC1c1ncc(-c2ccc3ccccc3c2)[nH]1` (stereo not drawn) the pEC50 was 5.30 to 6.00. Molecule `COc1nc2ccccc2cc1-c1cnc(C2CN(CC3CCOC3)CCN2C(=O)Cc2c(C)[nH]c3ccccc23)[nH]1` (stereo not drawn) has a pEC50 of 6.30 to 7.00. Work on `COc1ccc(CC(=O)N2CCN(C)CC2c2ncc(-c3ccc4ccccc4c3)[nH]2)cc1` (stereo not drawn) yielded a pEC50 of 5.30 to 6.00. In the case of `COc1ccc2nc(C(F)(F)F)n(CC(=O)N3CCN(CCn4cccn4)C[C@H]3c3ncc(-c4cc5ccccc5nc4OC)[nH]3)c2c1` [(S)-1-(4-(2-(1H-pyrazol-1-yl)ethyl)-2-(5-(2-methoxyquinolin-3-yl)-1H-imidazol-2-yl)piperazin-1-yl)-2-(6-methoxy-2-(trifluoromethyl)-1H-benzo[d]imidazol-1-yl)ethan-1-one], the pEC50 was > 7.00. `COc1ccc2nc(C)n(CC(=O)N3CC[C@H](NCc4ccn(C)n4)C[C@H]3c3ncc(-c4cc5ccccc5nc4OC)[nH]3)c2c1` gave a pEC50 of 5.30 to 6.00. For `COc1nc2ccccc2cc1-c1cnc([C@@H]2CN(Cc3cncnc3)CCN2C(=O)Cn2c(C(F)(F)F)nc3ccccc32)[nH]1` [(S)-1-(2-(5-(2-methoxyquinolin-3-yl)-1H-imidazol-2-yl)-4-(pyrimidin-5-ylmethyl)piperazin-1-yl)-2-(2-(trifluoromethyl)-1H-benzo[d]imidazol-1-yl)ethan-1-one], the pEC50 was > 7.00. With `COc1ccc2nc(C(F)(F)F)n(CC(=O)N3CCN(Cc4cnn(C)c4C)CCC3c3ncc(-c4cc5ccccc5nc4OC)[nH]3)c2c1` (stereo not drawn) the pEC50 was 6.30 to 7.00. Molecule `CCC(=O)CCCN1CCN(C(=O)Nc2ccccc2)C(c2ncc(-c3ccc4ccccc4c3)[nH]2)C1` (stereo not drawn) [2-(5-(naphthalen-2-yl)-1H-imidazol-2-yl)-4-(4-oxohexyl)-N-phenylpiperazine-1-carboxamide] has a pEC50 of 5.30 to 6.00. For `COc1ccc2nc(C)n(CC(=O)N3CCN(C[C@@H]4CCOC4)CC3c3ncc(-c4ccc(-c5ccccc5)nc4OC)[nH]3)c2c1` (stereo partly drawn), the pEC50 was 5.30 to 6.00. `COc1nc2ccccc2cc1-c1cnc(C2CN(CC3CCOC3)CCN2C(=O)Cn2c(C)nc3cc(F)c(F)cc32)[nH]1` (stereo not drawn) gave a pEC50 of 6.30 to 7.00. With `COc1cc2nc(C(F)(F)F)n(CC(=O)N3CCN(CC4CCOC4)C[C@H]3c3ncc(-c4cc5ccccc5nc4OC)[nH]3)c2cc1OC` (stereo partly drawn) [2-(5,6-dimethoxy-2-(trifluoromethyl)-1H-benzo[d]imidazol-1-yl)-1-((2S)-2-(5-(2-methoxyquinolin-3-yl)-1H-imidazol-2-yl)-4-((tetrahydrofuran-3-yl)methyl)piperazin-1-yl)ethan-1-one] the pEC50 was > 7.00. In the case of `Cc1[nH]c2ccc(F)cc2c1CC(=O)N1CCN(CC2CCOC2)CC1c1ncc(-c2ccc(-n3cccn3)cc2)[nH]1` (stereo not drawn), the pEC50 was 5.30 to 6.00. With `COc1ccc2nc(C(F)(F)F)n(CC(=O)N3CCN(CC4COC4)CCC3c3ncc(-c4cc5ccccc5nc4OC)[nH]3)c2c1` (stereo not drawn) the pEC50 was 6.30 to 7.00. With `CN1CCN(C(=O)Cc2ccncc2)C(c2ncc(-c3ccc4ccccc4c3)[nH]2)C1` (stereo not drawn) the pEC50 was 5.30 to 6.00. For `COc1ccc2nc(C)n(CC(=O)N3CCN(CC4CCOC4)C[C@H]3c3ncc(-c4ccc5ccccc5n4)[nH]3)c2c1` (stereo partly drawn), the pEC50 was 5.30 to 6.00. Molecule `CCC(=O)CCCN1CCN(C(=O)Cc2c[nH]c3ccccc23)[C@H](c2ncc(-c3ccc4ccccc4c3)[nH]2)C1` has a pEC50 of 6.30 to 7.00. In the case of `CNC(=O)CCCN1CCN(C(=O)Cc2c(C)[nH]c3ccc(OC)cc23)C(c2ncc(-c3ccc4ccccc4c3)[nH]2)C1` (stereo not drawn), the pEC50 was 6.30 to 7.00. `COc1nc2ccccc2cc1-c1cnc(C2CCN(Cc3ccn(C)n3)CCN2C(=O)Cn2c(C(F)(F)F)nc3ccccc32)[nH]1` (stereo not drawn) [1-(7-(5-(2-methoxyquinolin-3-yl)-1H-imidazol-2-yl)-4-((1-methyl-1H-pyrazol-3-yl)methyl)-1,4-diazepan-1-yl)-2-(2-(trifluoromethyl)-1H-benzo[d]imidazol-1-yl)ethan-1-one] was tested, and the pEC50 was > 7.00. `COc1ccc2[nH]c(C)c(CC(=O)N3CCN(C)CC3c3ncc(-c4ccccc4)[nH]3)c2c1` (stereo not drawn) was tested, and the pEC50 was 5.30 to 6.00. For `COc1nc2ccccc2cc1-c1cnc(C2CN(Cc3cnccn3)CCN2C(=O)Cc2c(C)[nH]c3ccc(F)cc23)[nH]1` (stereo not drawn) [2-(5-fluoro-2-methyl-1H-indol-3-yl)-1-(2-(5-(2-methoxyquinolin-3-yl)-1H-imidazol-2-yl)-4-(pyrazin-2-ylmethyl)piperazin-1-yl)ethan-1-one], the pEC50 was > 7.00. `COc1nc2ccccc2cc1-c1cnc(C2CN(Cc3cccnc3)CCN2C(=O)Cc2c(C)[nH]c3ccc(F)cc23)[nH]1` (stereo not drawn) gave a pEC50 of 6.30 to 7.00. `COc1nc2ccccc2cc1-c1cnc(C2CN(CC3CCOC3)CCN2C(=O)c2nccc3ccccc23)[nH]1` (stereo not drawn) showed a pEC50 of 5.30 to 6.00. `COc1ccc2nc(C(F)(F)F)n(CC(=O)N3CC[C@H](NCC4CCOC4)C[C@H]3c3ncc(-c4cc5ccccc5nc4OC)[nH]3)c2c1` (stereo partly drawn) [2-(6-methoxy-2-(trifluoromethyl)-1H-benzo[d]imidazol-1-yl)-1-((2S,4S)-2-(5-(2-methoxyquinolin-3-yl)-1H-imidazol-2-yl)-4-(((tetrahydrofuran-3-yl)methyl)amino)piperidin-1-yl)ethan-1-one] was tested, and the pEC50 was > 7.00.

From US10815222B2, “Compounds for use in the treatment of kinetoplastid infection” (C.N.C.C.S. S.c.a.r.l. COLLEZIONE NAZIONALE DEI COMPOSTI …, priority 2016, dated 2020)
